Among the test systems are 786-0 renal; BT-549 breast; HOP-92 NSCLC; LOX IMVI melanoma; MDA-MB-231 breast; OVCAR-3 ovarian; OVCAR-5 ovarian; RXF 393 renal; SF-268 CNS; SK-MEL-5 melanoma.
Experiment in all cases: NCI-60 cell line screen, 48 h

These results are taken from PubChem BioAssay (NCI).

Several values for one entry are separate records, joined by “and”; a condition that tells them apart may be missing. Identical values can stand only once.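 1) Cells in 96-well plates. 2) Compound, 48 h, 5 concentrations. 3) Linear interpolation between surrounding doses. 4) Unreached endpoint = highest concentration. GI50 is the concentration that inhibits growth by half. The concentration for full growth arrest is given as TGI.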 Where only a bound is given, the exact number is not on record here.

For the molecule `O=C(N/N=C/c1coc2ccc(Cl)cc2c1=O)c1ccncc1`, the GI50 is 55.3 µM with 786-0 renal; 71.3 µM in the assay on BT-549 breast; 93.8 µM in the assay on HOP-92 NSCLC; 38.6 µM in the assay with LOX IMVI melanoma; 80.6 µM in the assay with MDA-MB-231 breast; 68.5 µM in the assay with OVCAR-3 ovarian. The GI50 in the assay with OVCAR-5 ovarian is above 100 µM; in the assay with RXF 393 renal, 65.9 µM; with SF-268 CNS it was 89.7 µM; in the assay on SK-MEL-5 melanoma, 44.8 µM. Also, the TGI in the assay with 786-0 renal, in the assay on BT-549 breast, in the assay on HOP-92 NSCLC, with LOX IMVI melanoma, in the assay on MDA-MB-231 breast and in the assay with OVCAR-3 ovarian was above 100 µM throughout. The TGI in the assay with OVCAR-5 ovarian, with RXF 393 renal, in the assay on SF-268 CNS and with SK-MEL-5 melanoma was above 100 µM each time.

For `C(=N/Nc1ncnc2nc[nH]c12)/c1ccccn1`, the GI50 in the assay on 786-0 renal was 1.65 µM; in the assay on BT-549 breast it was 1.86 µM; in the assay on HOP-92 NSCLC it was 3.14 µM; in the assay on LOX IMVI melanoma it was 0.525 µM; with MDA-MB-231 breast, 0.609 µM; in the assay on OVCAR-3 ovarian, 0.421 µM. Besides, the GI50 in the assay with OVCAR-5 ovarian is 1.02 µM; in the assay on RXF 393 renal, 1.92 µM; in the assay with SF-268 CNS, 0.342 µM; in the assay on SK-MEL-5 melanoma, 1.28 µM. The TGI with 786-0 renal is 5.43 µM; in the assay with BT-549 breast it was above 100 µM; with HOP-92 NSCLC, 8.72 µM; in the assay on LOX IMVI melanoma, above 100 µM; in the assay with MDA-MB-231 breast, above 100 µM; with OVCAR-3 ovarian, above 47 µM. In addition, the TGI in the assay with OVCAR-5 ovarian is above 100 µM; in the assay on RXF 393 renal it was 7.32 µM; in the assay on SF-268 CNS, above 23.7 µM; with SK-MEL-5 melanoma it was 4.61 µM.

Turning to `CCCCCCCCCCCCOC1C(CNC(=O)C2OC3OC(C)(C)OC3C2NC(=O)CN2CCN(c3ccccn3)CC2)OC2OC(C)(C)OC21` (stereo not given), the GI50 in the assay on 786-0 renal was 1.79 µM; in the assay with BT-549 breast, 1.83 µM; in the assay on HOP-92 NSCLC it was 1.7 µM; in the assay on LOX IMVI melanoma it was 1.88 µM; with MDA-MB-231 breast, 1.67 µM; in the assay on OVCAR-3 ovarian, 1.54 µM. In addition, the GI50 in the assay on OVCAR-5 ovarian was 4.11 µM; in the assay on RXF 393 renal, 1.36 µM; with SF-268 CNS, 2.26 µM; in the assay on SK-MEL-5 melanoma, 1.7 µM. Besides, the TGI with 786-0 renal was 3.22 µM; with BT-549 breast, 3.39 µM; with HOP-92 NSCLC, 3.18 µM; with LOX IMVI melanoma it was 3.53 µM; with MDA-MB-231 breast, 3.14 µM; in the assay on OVCAR-3 ovarian, 3.02 µM. In addition, the TGI in the assay on OVCAR-5 ovarian is 8.35 µM; in the assay with RXF 393 renal, 2.74 µM; in the assay with SF-268 CNS, 6.31 µM; in the assay on SK-MEL-5 melanoma it was 3.09 µM.

Regarding `CCOC(=O)c1c[nH]c2c(OCc3ccccc3)c3ccccc3c(O)c2c1=O`, the GI50 with 786-0 renal was 18.6 µM; in the assay on BT-549 breast it was 12.7 µM; in the assay on HOP-92 NSCLC, 27 µM; with LOX IMVI melanoma, 6.83 µM; in the assay on MDA-MB-231 breast, 15.2 µM; in the assay on OVCAR-3 ovarian, 11.1 µM. The GI50 with OVCAR-5 ovarian was 54.7 µM; in the assay on RXF 393 renal, 22.6 µM; in the assay on SF-268 CNS, 12.9 µM; in the assay on SK-MEL-5 melanoma it was 2.55 µM. For the same molecule, the TGI was found to be 57.4 µM with 786-0 renal; 37.8 µM with BT-549 breast; 93.5 µM with HOP-92 NSCLC; 33 µM with LOX IMVI melanoma; 60.8 µM in the assay with MDA-MB-231 breast; 51 µM in the assay with OVCAR-3 ovarian. Moreover, the TGI with OVCAR-5 ovarian is above 100 µM; in the assay with RXF 393 renal, 55.7 µM; in the assay with SF-268 CNS, 50.7 µM; in the assay with SK-MEL-5 melanoma, 7.52 µM.

With `CSC(=S)N/N=C/c1ccccc1`, the TGI in the assay with 786-0 renal, in the assay with BT-549 breast, in the assay on HOP-92 NSCLC, with LOX IMVI melanoma, in the assay on MDA-MB-231 breast and in the assay on OVCAR-3 ovarian was above 100 µM each time. Besides, the TGI in the assay with OVCAR-5 ovarian is above 100 µM; in the assay on RXF 393 renal, 76.9 µM; in the assay with SF-268 CNS, above 100 µM; with SK-MEL-5 melanoma, above 100 µM.

In the case of `CCOc1cc(C=O)c2c(ccc3ccc(OC)c(OC)c32)c1OC`, the TGI with 786-0 renal, in the assay with BT-549 breast, with HOP-92 NSCLC, in the assay with LOX IMVI melanoma, in the assay with MDA-MB-231 breast and in the assay with OVCAR-3 ovarian was above 100 µM each time. Besides, the TGI in the assay on OVCAR-5 ovarian, in the assay with RXF 393 renal, with SF-268 CNS and in the assay with SK-MEL-5 melanoma was above 100 µM each time.

For the molecule `CCOC(=O)c1ccc2c(c1)[n+](=O)c(C(=O)c1ccc3ccccc3c1)c(C(F)(F)F)n2[O-]`, the GI50 in the assay with 786-0 renal is 1.61 µM; in the assay with BT-549 breast, 1.53 µM; in the assay on HOP-92 NSCLC it was 1.2 µM; in the assay on LOX IMVI melanoma, 0.175 µM; in the assay on MDA-MB-231 breast it was 1.58 µM; in the assay on OVCAR-3 ovarian, 0.749 µM. Also, the GI50 in the assay with OVCAR-5 ovarian is 1.3 µM; in the assay on RXF 393 renal, 1.73 µM; with SF-268 CNS it was 1.15 µM; with SK-MEL-5 melanoma it was 1.45 µM. In addition, the TGI in the assay with 786-0 renal was determined as 2.99 µM; in the assay with BT-549 breast, 3.28 µM; in the assay on HOP-92 NSCLC, 2.52 µM; in the assay on LOX IMVI melanoma it was 0.329 µM; with MDA-MB-231 breast, 3.15 µM; in the assay with OVCAR-3 ovarian, 2.03 µM. Also, the TGI in the assay on OVCAR-5 ovarian turned out to be 2.57 µM; in the assay on RXF 393 renal, 3.26 µM; in the assay on SF-268 CNS it was 2.36 µM; in the assay with SK-MEL-5 melanoma it was 2.78 µM.

As to `COC1OCC(OS(=O)(=O)c2ccc(C)cc2)C(OC(=O)c2ccccc2)C1OC(=O)c1ccccc1` (stereo not given), the GI50 in the assay on 786-0 renal is 5.13 µM; in the assay on BT-549 breast it was above 100 µM; with HOP-92 NSCLC, 2.48 µM; in the assay on LOX IMVI melanoma, 5.05 µM; in the assay with MDA-MB-231 breast, 7.02 µM; with OVCAR-3 ovarian, 2.95 µM. For the same molecule, the GI50 with OVCAR-5 ovarian is above 100 µM; in the assay with RXF 393 renal, 4.62 µM; with SF-268 CNS, 9.75 µM; in the assay with SK-MEL-5 melanoma it was 4.32 µM. Besides, the TGI in the assay on 786-0 renal was above 100 µM; in the assay with BT-549 breast, above 100 µM; in the assay with HOP-92 NSCLC, above 100 µM; in the assay with LOX IMVI melanoma, above 100 µM; in the assay on MDA-MB-231 breast, above 100 µM; with OVCAR-3 ovarian, 61.7 µM. The TGI with OVCAR-5 ovarian, with RXF 393 renal, with SF-268 CNS and in the assay with SK-MEL-5 melanoma was above 100 µM throughout.

Turning to `O=C(CCc1nnc(-c2c(Cl)cccc2Cl)o1)c1nc2ccccc2[nH]1`, the GI50 is 10.7 µM with 786-0 renal; 7.54 µM in the assay with BT-549 breast; 1.77 µM in the assay with HOP-92 NSCLC; 4.03 µM with LOX IMVI melanoma; 2.68 µM with MDA-MB-231 breast; 5.63 µM in the assay with OVCAR-3 ovarian. Besides, the GI50 in the assay on OVCAR-5 ovarian is 7.82 µM; with RXF 393 renal, 4.3 µM; with SF-268 CNS, 7.29 µM; in the assay with SK-MEL-5 melanoma, 2.88 µM. The TGI in the assay on 786-0 renal is 45.5 µM; in the assay on BT-549 breast it was 92.4 µM; with HOP-92 NSCLC, 15.8 µM; in the assay on LOX IMVI melanoma, 39.8 µM; with MDA-MB-231 breast it was 42.6 µM; with OVCAR-3 ovarian, 24.8 µM. The TGI is above 100 µM in the assay with OVCAR-5 ovarian, 49.7 µM with RXF 393 renal, 46.6 µM in the assay on SF-268 CNS and 14.9 µM in the assay on SK-MEL-5 melanoma.

As to `CN(C)c1ccc(/C=C(\C#N)c2cc3ccccc3n2C)cc1`, the GI50 with 786-0 renal was 0.418 µM; in the assay with BT-549 breast, 0.618 µM; in the assay with HOP-92 NSCLC, 0.556 µM; in the assay with LOX IMVI melanoma, 0.425 µM; in the assay with MDA-MB-231 breast, 0.509 µM; in the assay with OVCAR-3 ovarian, 0.123 µM. Further, the GI50 is 0.487 µM in the assay on OVCAR-5 ovarian, 0.133 µM in the assay on RXF 393 renal, 2.18 µM in the assay with SF-268 CNS and 0.606 µM in the assay on SK-MEL-5 melanoma. Also, the TGI in the assay on 786-0 renal is above 100 µM; with BT-549 breast it was above 100 µM; with HOP-92 NSCLC it was above 23 µM; with LOX IMVI melanoma it was above 100 µM; in the assay with MDA-MB-231 breast it was above 100 µM; with OVCAR-3 ovarian, 1.27 µM. Also, the TGI in the assay on OVCAR-5 ovarian was above 100 µM; in the assay on RXF 393 renal it was 0.549 µM; in the assay on SF-268 CNS it was above 100 µM; in the assay with SK-MEL-5 melanoma it was 12.1 µM.

Consider `CC1(C)CC(=O)C2=C(C1)NC(SSC1=C(C#N)C(c3ccc(Br)cc3)C3=C(CC(C)(C)CC3=O)N1)=C(C#N)C2c1ccc(Br)cc1` (stereo not given), for which the GI50 in the assay with 786-0 renal was 53.8 µg/mL; in the assay on BT-549 breast it was 28.1 µg/mL; in the assay on HOP-92 NSCLC it was 46.4 µg/mL; in the assay on LOX IMVI melanoma it was 22.9 µg/mL; in the assay with MDA-MB-231 breast, 26.6 µg/mL; in the assay on OVCAR-3 ovarian, above 150 µg/mL. Also, the GI50 with OVCAR-5 ovarian is above 150 µg/mL; in the assay on RXF 393 renal it was 41.6 µg/mL; in the assay with SF-268 CNS it was above 150 µg/mL; in the assay on SK-MEL-5 melanoma, above 150 µg/mL. The TGI in the assay on 786-0 renal is > 100 µM and 150 µg/mL; in the assay on BT-549 breast, > 100 µM and 52 µg/mL; in the assay on HOP-92 NSCLC it was > 100 µM and 116 µg/mL; with LOX IMVI melanoma, > 100 µM and 46.6 µg/mL; in the assay with MDA-MB-231 breast, > 100 µM and 53.5 µg/mL; in the assay on OVCAR-3 ovarian, > 100 µM and 150 µg/mL. Further, the TGI is > 100 µM and 150 µg/mL in the assay with OVCAR-5 ovarian; > 100 µM and 123 µg/mL with RXF 393 renal; > 100 µM and 150 µg/mL in the assay with SF-268 CNS; > 100 µM and 150 µg/mL in the assay on SK-MEL-5 melanoma.
